{"source": "paper PMC6979384", "about": "“Characterization of the plant homeodomain (PHD) reader family for their histone tail interactions” (Epigenetics & Chromatin, 2020)", "assay_in_all_cases": "Histone peptide microarray", "format_in_all_cases": "binding, human", "key": {"AIRE (PP)": {"system": "AIRE (PP)", "settings": "AIRE (PP); sheet \"Array Heatmap\"; each array performed twice, total n = 4", "how_it_was_run": "(§1)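 Binding read as mean relative signal from 4 replicates; microarray held 293 synthetic histone peptides with single or combinatorial PTMs. Each GST-tagged PHD reader was applied at 0.5 μM using the optimized Petell protocol.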"}, "BAZ2B": {"system": "BAZ2B", "settings": "BAZ2B; sheet \"Array Heatmap\"; each array performed twice, total n = 4", "how_it_was_run": "as §1"}, "BPTF (PB)": {"system": "BPTF (PB)", "settings": "BPTF (PB); sheet \"Array Heatmap\"; each array performed twice, total n = 4", "how_it_was_run": "as §1"}, "CHD4 (PPCC)": {"system": "CHD4 (PPCC)", "settings": "CHD4 (PPCC); sheet \"Array Heatmap\"; each array performed twice, total n = 4", "how_it_was_run": "as §1"}, "CHD5 (PCC)": {"system": "CHD5 (PCC)", "settings": "CHD5 (PCC); sheet \"Array Heatmap\"; each array performed twice, total n = 4", "how_it_was_run": "as §1"}, "CHD5 (PPCC)": {"system": "CHD5 (PPCC)", "settings": "CHD5 (PPCC); sheet \"Array Heatmap\"; each array performed twice, total n = 4", "how_it_was_run": "as §1"}, "DIDO1": {"system": "DIDO1", "settings": "DIDO1; sheet \"Array Heatmap\"; each array performed twice, total n = 4", "how_it_was_run": "as §1"}, "DPF2 (PPC2W2)": {"system": "DPF2 (PPC2W2)", "settings": "DPF2 (PPC2W2); sheet \"Array Heatmap\"; each array performed twice, total n = 4", "how_it_was_run": "as §1"}, "ING1": {"system": "ING1", "settings": "ING1; sheet \"Array Heatmap\"; each array performed twice, total n = 4", "how_it_was_run": "as §1"}, "ING2": {"system": "ING2", "settings": "ING2; sheet \"Array Heatmap\"; each array performed twice, total n = 4", "how_it_was_run": "as §1"}, "ING3": {"system": "ING3", "settings": "ING3; sheet \"Array Heatmap\"; each array performed twice, total n = 4", "how_it_was_run": "as §1"}, "ING4": {"system": "ING4", "settings": "ING4; sheet \"Array Heatmap\"; each array performed twice, total n = 4", "how_it_was_run": "as §1"}, "ING5": {"system": "ING5", "settings": "ING5; sheet \"Array Heatmap\"; each array performed twice, total n = 4", "how_it_was_run": "as §1"}, "KDM4C (TTP)": {"system": "KDM4C (TTP)", "settings": "KDM4C (TTP); sheet \"Array Heatmap\"; each array performed twice, total n = 4", "how_it_was_run": "as §1"}, "KDM5A (1)": {"system": "KDM5A (1)", "settings": "KDM5A (1); sheet \"Array Heatmap\"; each array performed twice, total n = 4", "how_it_was_run": "as §1"}, "KDM5A (3)": {"system": "KDM5A (3)", "settings": "KDM5A (3); sheet \"Array Heatmap\"; each array performed twice, total n = 4", "how_it_was_run": "as §1"}, "KDM5B (1)": {"system": "KDM5B (1)", "settings": "KDM5B (1); sheet \"Array Heatmap\"; each array performed twice, total n = 4", "how_it_was_run": "as §1"}, "KDM5B (3)": {"system": "KDM5B (3)", "settings": "KDM5B (3); sheet \"Array Heatmap\"; each array performed twice, total n = 4", "how_it_was_run": "as §1"}, "KDM7A": {"system": "KDM7A", "settings": "KDM7A; sheet \"Array Heatmap\"; each array performed twice, total n = 4", "how_it_was_run": "as §1"}, "MLL5": {"system": "MLL5", "settings": "MLL5; sheet \"Array Heatmap\"; each array performed twice, total n = 4", "how_it_was_run": "as §1"}, "MORC3 (CW)": {"system": "MORC3 (CW)", "settings": "MORC3 (CW); sheet \"Array Heatmap\"; each array performed twice, total n = 4", "how_it_was_run": "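GST-PHD reader, 0.5 μM, probed on 293-peptide histone array (single/combinatorial PTMs); optimized array protocol; signal = mean ± SD, n = 4.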"}, "PHF13": {"system": "PHF13", "settings": "PHF13; sheet \"Array Heatmap\"; each array performed twice, total n = 4", "how_it_was_run": "as §1"}, "PHF21A": {"system": "PHF21A", "settings": "PHF21A; sheet \"Array Heatmap\"; each array performed twice, total n = 4", "how_it_was_run": "as §1"}, "PHF23": {"system": "PHF23", "settings": "PHF23; sheet \"Array Heatmap\"; each array performed twice, total n = 4", "how_it_was_run": "as §1"}, "PHF2": {"system": "PHF2", "settings": "PHF2; sheet \"Array Heatmap\"; each array performed twice, total n = 4", "how_it_was_run": "as §1"}, "PHF8": {"system": "PHF8", "settings": "PHF8; sheet \"Array Heatmap\"; each array performed twice, total n = 4", "how_it_was_run": "as §1"}, "PHRF1 (RP)": {"system": "PHRF1 (RP)", "settings": "PHRF1 (RP); sheet \"Array Heatmap\"; each array performed twice, total n = 4", "how_it_was_run": "as §1"}, "RAG2": {"system": "RAG2", "settings": "RAG2; sheet \"Array Heatmap\"; each array performed twice, total n = 4", "how_it_was_run": "as §1"}, "SP140L": {"system": "SP140L", "settings": "SP140L; sheet \"Array Heatmap\"; each array performed twice, total n = 4", "how_it_was_run": "as §1"}, "TAF3": {"system": "TAF3", "settings": "TAF3; sheet \"Array Heatmap\"; each array performed twice, total n = 4", "how_it_was_run": "as §1"}, "TRIM66 (PB)": {"system": "TRIM66 (PB)", "settings": "TRIM66 (PB); sheet \"Array Heatmap\"; each array performed twice, total n = 4", "how_it_was_run": "as §1"}}}
{"substance": "H4K5ac + K8me1 + K12ac + K16ac: H4 1-23", "values": [{"measurement": "Array Heatmap value (peptide array signal)", "setting": "AIRE (PP)", "result": 0.5672}, {"measurement": "Array Heatmap value (peptide array signal)", "setting": "BAZ2B", "result": 0.5032}, {"measurement": "Array Heatmap value (peptide array signal)", "setting": "BPTF (PB)", "result": 0.382}, {"measurement": "Array Heatmap value (peptide array signal)", "setting": "CHD4 (PPCC)", "result": 0.5762}, {"measurement": "Array Heatmap value (peptide array signal)", "setting": "CHD5 (PCC)", "result": 0.8607}, {"measurement": "Array Heatmap value (peptide array signal)", "setting": "CHD5 (PPCC)", "result": 0.5973}, {"measurement": "Array Heatmap value (peptide array signal)", "setting": "DIDO1", "result": 0.7292}, {"measurement": "Array Heatmap value (peptide array signal)", "setting": "DPF2 (PPC2W2)", "result": 0.6672}, {"measurement": "Array Heatmap value (peptide array signal)", "setting": "ING1", "result": 0.5458}, {"measurement": "Array Heatmap value (peptide array signal)", "setting": "ING2", "result": 0.602}, {"measurement": "Array Heatmap value (peptide array signal)", "setting": "ING3", "result": 0.4952}, {"measurement": "Array Heatmap value (peptide array signal)", "setting": "ING4", "result": 0.5013}, {"measurement": "Array Heatmap value (peptide array signal)", "setting": "ING5", "result": 0.3988}, {"measurement": "Array Heatmap value (peptide array signal)", "setting": "KDM4C (TTP)", "result": 0.5456}, {"measurement": "Array Heatmap value (peptide array signal)", "setting": "KDM5A (1)", "result": 0.5072}, {"measurement": "Array Heatmap value (peptide array signal)", "setting": "KDM5A (3)", "result": 0.4998}, {"measurement": "Array Heatmap value (peptide array signal)", "setting": "KDM5B (1)", "result": 0.7009}, {"measurement": "Array Heatmap value (peptide array signal)", "setting": "KDM5B (3)", "result": 0.4848}, {"measurement": "Array Heatmap value (peptide array signal)", "setting": "KDM7A", "result": 0.4269}, {"measurement": "Array Heatmap value (peptide array signal)", "setting": "MLL5", "result": 0.5641}, {"measurement": "Array Heatmap value (peptide array signal)", "setting": "MORC3 (CW)", "result": 0.4169}, {"measurement": "Array Heatmap value (peptide array signal)", "setting": "PHF13", "result": 0.643}, {"measurement": "Array Heatmap value (peptide array signal)", "setting": "PHF21A", "result": 0.4984}, {"measurement": "Array Heatmap value (peptide array signal)", "setting": "PHF23", "result": 0.5588}, {"measurement": "Array Heatmap value (peptide array signal)", "setting": "PHF2", "result": 0.5076}, {"measurement": "Array Heatmap value (peptide array signal)", "setting": "PHF8", "result": 0.4058}, {"measurement": "Array Heatmap value (peptide array signal)", "setting": "PHRF1 (RP)", "result": 0.4565}, {"measurement": "Array Heatmap value (peptide array signal)", "setting": "RAG2", "result": 0.2535}, {"measurement": "Array Heatmap value (peptide array signal)", "setting": "SP140L", "result": 0.3759}, {"measurement": "Array Heatmap value (peptide array signal)", "setting": "TAF3", "result": 0.2847}, {"measurement": "Array Heatmap value (peptide array signal)", "setting": "TRIM66 (PB)", "result": 0.6845}]}
